# From ChEMBL document CHEMBL1201861, “Genomics of Drug Sensitity in Cancer screening data, Wellcome Trust Sanger Institute”
# pIC50: −log10 of the molar value.
# Tested on: NCI-H1563;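 note: growth inhibition of human NCI-H1563 cells, read out with a cell viability assay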
# Assay: cells
# Assay type: functional, cell-based
# Settings: Homo sapiens
row,Compound,pIC50
1,C/C(=C\c1csc(C)n1)[C@@H]1C[C@@H]2O[C@]2(C)CCC[C@H](C)[C@H](O)[C@@H](C)C(=O)C(C)(C)[C@@H](O)CC(=O)O1 [PATUPILONE],< 7.49

# Tested on: CP50-MEL-B;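 note: growth inhibition of the human cell line, measured with a cell viability read-out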
# Assay: cells
# Assay type: functional, cell-based
# Settings: Homo sapiens
# Description: SANGER: Inhibition of human CP50-MEL-B cell growth in a cell viability assay.
row,Compound,pIC50
1,C/C(=C\c1csc(C)n1)[C@@H]1C[C@@H]2O[C@]2(C)CCC[C@H](C)[C@H](O)[C@@H](C)C(=O)C(C)(C)[C@@H](O)CC(=O)O1 [PATUPILONE],7.72

# Tested on: KOSC-2;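 note: growth inhibition of KOSC-2 cells, read out by a cell viability assay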
# Assay: cells
# Assay type: functional, cell-based
# Settings: Homo sapiens
# Description: SANGER: Inhibition of human KOSC-2 cell growth in a cell viability assay.
row,Compound,pIC50
1,C/C(=C\c1csc(C)n1)[C@@H]1C[C@@H]2O[C@]2(C)CCC[C@H](C)[C@H](O)[C@@H](C)C(=O)C(C)(C)[C@@H](O)CC(=O)O1 [PATUPILONE],8.55

# Tested on: SAS;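 note: growth inhibition of SAS cells, read out with a cell viability assay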
# Assay: cells
# Assay type: functional, cell-based
# Settings: Homo sapiens
# Description: SANGER: Inhibition of human SAS cell growth in a cell viability assay.
row,Compound,pIC50
1,C/C(=C\c1csc(C)n1)[C@@H]1C[C@@H]2O[C@]2(C)CCC[C@H](C)[C@H](O)[C@@H](C)C(=O)C(C)(C)[C@@H](O)CC(=O)O1 [PATUPILONE],< 7.49

# Tested on: KYSE-180;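 note: growth inhibition of KYSE-180 cells, read out with a cell viability assay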
# Assay: cells
# Assay type: functional, cell-based
# Settings: Homo sapiens
# Description: SANGER: Inhibition of human KYSE-180 cell growth in a cell viability assay.
row,Compound,pIC50
1,C/C(=C\c1csc(C)n1)[C@@H]1C[C@@H]2O[C@]2(C)CCC[C@H](C)[C@H](O)[C@@H](C)C(=O)C(C)(C)[C@@H](O)CC(=O)O1 [PATUPILONE],9.22

# Tested on: COLO-792
# Assay: cells
# Assay type: functional, cell-based
# Settings: Homo sapiens
# Description: SANGER: Inhibition of human COLO-792 cell growth in a cell viability assay.
row,Compound,pIC50
1,C/C(=C\c1csc(C)n1)[C@@H]1C[C@@H]2O[C@]2(C)CCC[C@H](C)[C@H](O)[C@@H](C)C(=O)C(C)(C)[C@@H](O)CC(=O)O1 [PATUPILONE],< 7.49

# Tested on: MDA-MB-361
# Assay: cells
# Assay type: functional, cell-based
# Settings: Homo sapiens
row,Compound,pIC50
1,C/C(=C\c1csc(C)n1)[C@@H]1C[C@@H]2O[C@]2(C)CCC[C@H](C)[C@H](O)[C@@H](C)C(=O)C(C)(C)[C@@H](O)CC(=O)O1 [PATUPILONE],7.78

# Tested on: SK-LU-1;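 note: cell viability assay measuring growth inhibition of human SK-LU-1 cells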
# Assay: cells
# Assay type: functional, cell-based
# Settings: Homo sapiens
# Description: SANGER: Inhibition of human SK-LU-1 cell growth in a cell viability assay.
row,Compound,pIC50
1,C/C(=C\c1csc(C)n1)[C@@H]1C[C@@H]2O[C@]2(C)CCC[C@H](C)[C@H](O)[C@@H](C)C(=O)C(C)(C)[C@@H](O)CC(=O)O1 [PATUPILONE],9.06

# Tested on: TE-15;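 note: cell viability readout of growth inhibition in TE-15 cells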
# Assay: cells
# Assay type: functional, cell-based, Homo sapiens
# Settings: Homo sapiens, TE-15
# Description: SANGER: Inhibition of human TE-15 cell growth in a cell viability assay.
row,Compound,pIC50
1,C/C(=C\c1csc(C)n1)[C@@H]1C[C@@H]2O[C@]2(C)CCC[C@H](C)[C@H](O)[C@@H](C)C(=O)C(C)(C)[C@@H](O)CC(=O)O1 [PATUPILONE],9.65

# Tested on: NCI-H650;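 note: growth inhibition of NCI-H650 cells, read out by a viability assay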
# Assay: cells
# Assay type: functional, cell-based
# Settings: Homo sapiens
# Description: SANGER: Inhibition of human NCI-H650 cell growth in a cell viability assay.
row,Compound,pIC50
1,C/C(=C\c1csc(C)n1)[C@@H]1C[C@@H]2O[C@]2(C)CCC[C@H](C)[C@H](O)[C@@H](C)C(=O)C(C)(C)[C@@H](O)CC(=O)O1 [PATUPILONE],9.77

# Tested on: KYSE-450;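 note: cell growth inhibition measured by a viability assay in human KYSE-450 cells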
# Assay: cells
# Assay type: functional, cell-based
# Settings: Homo sapiens
# Description: SANGER: Inhibition of human KYSE-450 cell growth in a cell viability assay.
row,Compound,pIC50
1,C/C(=C\c1csc(C)n1)[C@@H]1C[C@@H]2O[C@]2(C)CCC[C@H](C)[C@H](O)[C@@H](C)C(=O)C(C)(C)[C@@H](O)CC(=O)O1 [PATUPILONE],9.57

# Tested on: OE19;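 note: growth inhibition of OE19 cells, measured through a cell viability read-out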
# Assay: cells
# Assay type: functional, cell-based
# Settings: Homo sapiens
# Description: SANGER: Inhibition of human OE19 cell growth in a cell viability assay.
row,Compound,pIC50
1,C/C(=C\c1csc(C)n1)[C@@H]1C[C@@H]2O[C@]2(C)CCC[C@H](C)[C@H](O)[C@@H](C)C(=O)C(C)(C)[C@@H](O)CC(=O)O1 [PATUPILONE],8.33

# Tested on: U-118-MG
# Assay: cells
# Assay type: functional, cell-based
# Settings: Homo sapiens
# Description: SANGER: Inhibition of human U-118-MG cell growth in a cell viability assay.
row,Compound,pIC50
1,C/C(=C\c1csc(C)n1)[C@@H]1C[C@@H]2O[C@]2(C)CCC[C@H](C)[C@H](O)[C@@H](C)C(=O)C(C)(C)[C@@H](O)CC(=O)O1 [PATUPILONE],7.75

# Tested on: OPM-2;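 note: growth of OPM-2 cells measured with a viability assay, IC50 for suppression of proliferation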
# Assay: cells
# Assay type: functional, cell-based, Homo sapiens
# Settings: Homo sapiens, OPM-2
# Description: SANGER: Inhibition of human OPM-2 cell growth in a cell viability assay.
row,Compound,pIC50
1,C/C(=C\c1csc(C)n1)[C@@H]1C[C@@H]2O[C@]2(C)CCC[C@H](C)[C@H](O)[C@@H](C)C(=O)C(C)(C)[C@@H](O)CC(=O)O1 [PATUPILONE],< 7.49

# Tested on: SiHa;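 note: Viability-based readout of growth inhibition in SiHa cells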
# Assay: cells
# Assay type: functional, cell-based
# Settings: Homo sapiens
# Description: SANGER: Inhibition of human SiHa cell growth in a cell viability assay.
row,Compound,pIC50
1,C/C(=C\c1csc(C)n1)[C@@H]1C[C@@H]2O[C@]2(C)CCC[C@H](C)[C@H](O)[C@@H](C)C(=O)C(C)(C)[C@@H](O)CC(=O)O1 [PATUPILONE],< 7.49

# Tested on: RPMI 8402
# Assay: SANGER: Inhibition of human RPMI-8402 cell growth in a cell viability assay.
# Assay type: functional, cell-based
# Settings: Homo sapiens, RPMI 8402
row,Compound,pIC50
1,C/C(=C\c1csc(C)n1)[C@@H]1C[C@@H]2O[C@]2(C)CCC[C@H](C)[C@H](O)[C@@H](C)C(=O)C(C)(C)[C@@H](O)CC(=O)O1 [PATUPILONE],8.35

# Tested on: ESS-1;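 note: growth inhibition of human ESS-1 cells, read out by a cell viability assay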
# Assay: cells
# Assay type: functional, cell-based
# Settings: Homo sapiens
# Description: SANGER: Inhibition of human ESS-1 cell growth in a cell viability assay.
row,Compound,pIC50
1,C/C(=C\c1csc(C)n1)[C@@H]1C[C@@H]2O[C@]2(C)CCC[C@H](C)[C@H](O)[C@@H](C)C(=O)C(C)(C)[C@@H](O)CC(=O)O1 [PATUPILONE],8.82

# Tested on: AGS;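 note: growth inhibition of AGS cells, determined with a cell viability assay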
# Assay: cells
# Assay type: functional, cell-based
# Settings: Homo sapiens
# Description: SANGER: Inhibition of human AGS cell growth in a cell viability assay.
row,Compound,pIC50
1,C/C(=C\c1csc(C)n1)[C@@H]1C[C@@H]2O[C@]2(C)CCC[C@H](C)[C@H](O)[C@@H](C)C(=O)C(C)(C)[C@@H](O)CC(=O)O1 [PATUPILONE],8.59

# Tested on: A 172;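 note: growth inhibition of A172 cells, measured with a cell viability readout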
# Assay: cells
# Assay type: functional, cell-based
# Settings: Homo sapiens
# Description: SANGER: Inhibition of human A172 cell growth in a cell viability assay.
row,Compound,pIC50
1,C/C(=C\c1csc(C)n1)[C@@H]1C[C@@H]2O[C@]2(C)CCC[C@H](C)[C@H](O)[C@@H](C)C(=O)C(C)(C)[C@@H](O)CC(=O)O1 [PATUPILONE],8.72

# Tested on: EHEB;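 note: growth inhibition of human EHEB cells, read out with a cell viability assay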
# Assay: cells
# Assay type: functional, cell-based
# Settings: Homo sapiens
# Description: SANGER: Inhibition of human EHEB cell growth in a cell viability assay.
row,Compound,pIC50
1,C/C(=C\c1csc(C)n1)[C@@H]1C[C@@H]2O[C@]2(C)CCC[C@H](C)[C@H](O)[C@@H](C)C(=O)C(C)(C)[C@@H](O)CC(=O)O1 [PATUPILONE],7.54

# Tested on: KMS-12-PE;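 note: growth inhibition of human KMS-12-PE cells, measured with a cell viability assay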
# Assay: cells
# Assay type: functional, cell-based, Homo sapiens
# Settings: Homo sapiens, KMS-12-PE
# Description: SANGER: Inhibition of human KMS-12-PE cell growth in a cell viability assay.
row,Compound,pIC50
1,C/C(=C\c1csc(C)n1)[C@@H]1C[C@@H]2O[C@]2(C)CCC[C@H](C)[C@H](O)[C@@H](C)C(=O)C(C)(C)[C@@H](O)CC(=O)O1 [PATUPILONE],< 7.49

# Tested on: GMS-10;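 note: growth inhibition of GMS-10 cells, read out as cell viability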
# Assay: cells
# Assay type: functional, cell-based
# Settings: Homo sapiens
# Description: SANGER: Inhibition of human GMS-10 cell growth in a cell viability assay.
row,Compound,pIC50
1,C/C(=C\c1csc(C)n1)[C@@H]1C[C@@H]2O[C@]2(C)CCC[C@H](C)[C@H](O)[C@@H](C)C(=O)C(C)(C)[C@@H](O)CC(=O)O1 [PATUPILONE],< 7.49

# Tested on: TALL-1;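 note: growth inhibition of cultured human TALL-1 cells, read out by a cell viability assay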
# Assay: cells
# Assay type: functional, cell-based, Homo sapiens
# Settings: Homo sapiens, TALL-1
# Description: SANGER: Inhibition of human TALL-1 cell growth in a cell viability assay.
row,Compound,pIC50
1,C/C(=C\c1csc(C)n1)[C@@H]1C[C@@H]2O[C@]2(C)CCC[C@H](C)[C@H](O)[C@@H](C)C(=O)C(C)(C)[C@@H](O)CC(=O)O1 [PATUPILONE],< 7.49

# Tested on: COLO-679
# Assay: cells
# Assay type: functional, cell-based
# Settings: Homo sapiens
# Description: SANGER: Inhibition of human COLO-679 cell growth in a cell viability assay.
row,Compound,pIC50
1,C/C(=C\c1csc(C)n1)[C@@H]1C[C@@H]2O[C@]2(C)CCC[C@H](C)[C@H](O)[C@@H](C)C(=O)C(C)(C)[C@@H](O)CC(=O)O1 [PATUPILONE],9.40

# Tested on: KYSE-410;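 note: growth inhibition of KYSE-410 cells, measured through a cell viability readout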
# Assay: cells
# Assay type: functional, cell-based
# Settings: Homo sapiens
# Description: SANGER: Inhibition of human KYSE-410 cell growth in a cell viability assay.
row,Compound,pIC50
1,C/C(=C\c1csc(C)n1)[C@@H]1C[C@@H]2O[C@]2(C)CCC[C@H](C)[C@H](O)[C@@H](C)C(=O)C(C)(C)[C@@H](O)CC(=O)O1 [PATUPILONE],8.99

# Tested on: RPMI-7951
# Assay: cells
# Assay type: functional, cell-based
# Settings: Homo sapiens
# Description: SANGER: Inhibition of human RPMI-7951 cell growth in a cell viability assay.
row,Compound,pIC50
1,C/C(=C\c1csc(C)n1)[C@@H]1C[C@@H]2O[C@]2(C)CCC[C@H](C)[C@H](O)[C@@H](C)C(=O)C(C)(C)[C@@H](O)CC(=O)O1 [PATUPILONE],8.98

# Tested on: SN12C;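 note: growth inhibition of human SN12C cells, measured by a cell viability assay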
# Assay: cells
# Assay type: functional, cell-based
# Settings: Homo sapiens
# Description: SANGER: Inhibition of human SN12C cell growth in a cell viability assay.
row,Compound,pIC50
1,C/C(=C\c1csc(C)n1)[C@@H]1C[C@@H]2O[C@]2(C)CCC[C@H](C)[C@H](O)[C@@H](C)C(=O)C(C)(C)[C@@H](O)CC(=O)O1 [PATUPILONE],8.03

# Tested on: ST486
# Assay: SANGER: Inhibition of human ST486 cell growth in a cell viability assay.
# Assay type: functional, cell-based
# Settings: Homo sapiens, ST486
row,Compound,pIC50
1,C/C(=C\c1csc(C)n1)[C@@H]1C[C@@H]2O[C@]2(C)CCC[C@H](C)[C@H](O)[C@@H](C)C(=O)C(C)(C)[C@@H](O)CC(=O)O1 [PATUPILONE],9.14

# Tested on: MDA-MB-175-VII
# Assay: cells
# Assay type: functional, cell-based
# Settings: Homo sapiens
row,Compound,pIC50
1,C/C(=C\c1csc(C)n1)[C@@H]1C[C@@H]2O[C@]2(C)CCC[C@H](C)[C@H](O)[C@@H](C)C(=O)C(C)(C)[C@@H](O)CC(=O)O1 [PATUPILONE],< 7.49
